The values that follow come from patent EP0598011B1, “ECDYSTEROID DEPENDENT REGULATION OF GENES IN MAMMALIAN CELLS” (GENENTECH, INC., priority 1991, dated 1993).

One data set relates to OC-33CO. Kind of data set: Reporter OC-33CO lacking lex-operators, control effector plasmid without receptor cDNA. Conditions: SD in parentheses. Format: cell-based. From the text: (§1) Such fusion constructs are expected to be useful in regulating the expression of exogenous genes introduced into transgenic mammals or mammalian cells. I next determined if the DHR23α ligand-binding domain could be used to regulate the activity of a DNA-binding domain not normally expressed in mammalian cells. I constructed the chimeric gene GLxEc by replacing the sequences coding for the GR DNA-binding domain in the GGEc fusion with those encoding the DNA-binding domain of the Escherichia coli LexA repressor (J. W. Little and S. A. Hill, Proc. Natl. Acad. Sci. U.S.A. 82, 2301 [1985]) (Fig. 4). A reporter gene, X4C-33CO was constructed that contains 4 copies of a 26-bp lex operator (R. Brent and M. Ptashne, Nature 312, 612 [1984]) at position -33 of the CMV promoter. GLxEc had no effect on the expression of a OC-33CO, a reporter gene lacking the lex operator (Fig. 6B).
(§2) Illustrated in Table 2 is the transcriptional activation by receptor-LexA fusion proteins. Effector plasmids encoding the indicated receptor proteins were transfected with a reporter gene either containing (X4C-33CO) or lacking (OC-33CO) lex-operators. […] The cells were incubated either with (+) or without (-) muristerone A. The fold induction was determined as described previously; the standard deviations are shown in parenthesis.

For a further data set, the system named is insect. Conditions: in vivo; cited from earlier work.
The target of a further data set is T1, GGG (Rattus norvegicus, UniProt P06536).
T1 sequence (P06536 1-795): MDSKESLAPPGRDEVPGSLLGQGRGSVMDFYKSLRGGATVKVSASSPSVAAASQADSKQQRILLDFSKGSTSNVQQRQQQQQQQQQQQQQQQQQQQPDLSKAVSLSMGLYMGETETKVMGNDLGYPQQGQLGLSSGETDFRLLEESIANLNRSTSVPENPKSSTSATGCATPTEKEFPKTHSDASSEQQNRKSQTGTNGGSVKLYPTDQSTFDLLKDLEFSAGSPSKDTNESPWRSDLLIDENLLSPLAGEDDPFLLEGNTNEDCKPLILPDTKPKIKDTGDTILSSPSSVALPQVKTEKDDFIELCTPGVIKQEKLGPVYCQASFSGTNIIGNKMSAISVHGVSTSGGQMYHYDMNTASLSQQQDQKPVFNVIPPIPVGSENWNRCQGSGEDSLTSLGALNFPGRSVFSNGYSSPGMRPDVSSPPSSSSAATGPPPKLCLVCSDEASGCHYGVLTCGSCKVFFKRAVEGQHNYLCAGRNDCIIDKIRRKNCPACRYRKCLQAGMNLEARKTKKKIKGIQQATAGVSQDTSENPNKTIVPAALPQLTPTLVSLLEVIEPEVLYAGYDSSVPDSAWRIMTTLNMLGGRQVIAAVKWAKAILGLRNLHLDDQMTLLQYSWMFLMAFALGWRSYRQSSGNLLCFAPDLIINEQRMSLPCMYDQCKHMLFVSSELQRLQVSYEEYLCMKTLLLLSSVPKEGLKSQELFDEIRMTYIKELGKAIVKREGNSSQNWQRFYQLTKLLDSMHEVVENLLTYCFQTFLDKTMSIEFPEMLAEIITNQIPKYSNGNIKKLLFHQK
Kind of data set: Induction of GRE reporter G4M-77CO by GGG (glucocorticoid receptor) in 293 cells. As to conditions: normalized to hGH, SD in parentheses, 2880 min.

The target in a further data set is T2, GXEc (Drosophila melanogaster, UniProt P34021).
T2 construct: expressed in transfected cells
T2 sequence (P34021 329-878): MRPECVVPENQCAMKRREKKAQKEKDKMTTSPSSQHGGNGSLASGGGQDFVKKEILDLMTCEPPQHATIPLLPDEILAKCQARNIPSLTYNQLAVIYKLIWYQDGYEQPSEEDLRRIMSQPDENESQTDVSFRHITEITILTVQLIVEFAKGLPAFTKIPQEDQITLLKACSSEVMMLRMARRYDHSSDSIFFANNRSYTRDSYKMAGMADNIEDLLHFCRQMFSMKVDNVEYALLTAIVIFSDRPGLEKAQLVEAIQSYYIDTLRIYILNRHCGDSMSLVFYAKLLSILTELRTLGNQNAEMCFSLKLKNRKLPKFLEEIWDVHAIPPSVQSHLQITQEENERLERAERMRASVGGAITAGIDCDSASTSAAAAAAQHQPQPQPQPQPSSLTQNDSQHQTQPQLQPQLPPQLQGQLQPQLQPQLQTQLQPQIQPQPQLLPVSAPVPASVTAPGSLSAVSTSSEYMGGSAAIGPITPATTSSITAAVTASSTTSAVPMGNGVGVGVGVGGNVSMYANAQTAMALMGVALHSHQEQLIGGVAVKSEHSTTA
Kind of data set: Reporter OC-33CO lacking lex-operators with GXEc. Format: cell-based. As to conditions: receptor GXEc, SD in parentheses.
Description: as §1, §2

Broadly, the fold induction is the ratio of treated to control signal. Consider `CC(C)CCC(O)[C@](C)(O)[C@H]1CC[C@@]2(O)C3=CC(=O)C4(O)CC(O)C(O)C[C@]4(C)[C@H]3C(O)C[C@]12C` (stereo partly shown) [muristerone A, 2,3,5,11,14,20,22-Heptahydroxy-7-cholesten-6-one], for which the fold induction was 1.1 (0.4) fold with OC-33CO, 1.0 (0.3) fold on GGG and 0.9 (0.3) fold on GXEc. In the data set on insect, the insect moulting activity result is “high”.
